According to the supplement of paper PMC10307832:

How the values were obtained:
Test in all cases: relative viability (nuclei count vs DMSO), 5 days (fraction); higher = more cells survive
201T = test system: 201T
Outline: (§1)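 Relative viability is defined as nuclei in treated wells over nuclei in vehicle wells. Duplicate plates were run and medians reported. Lung cancer cell lines in 1536-well plates were dosed by pin tool one day after seeding, with one drug or with a fixed anchor-drug dose plus five library-drug doses (not always all listed) in √10 steps, and nuclei were counted after 5 days.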

A-427 = test system: A-427
Outline: as §1

ABC-1 = test system: ABC-1
Outline: as §1

BEN = test system: BEN
Outline: as §1

CAL-12T = test system: CAL-12T
Outline: as §1

H3255 = test system: H3255
Outline: as §1

LC-2-ad = test system: LC-2-ad
Outline: as §1

LCLC-97TM1 = test system: LCLC-97TM1
Outline: as §1

NCI-H1650 = test system: NCI-H1650
Outline: as §1

NCI-H1651 = test system: NCI-H1651
Outline: as §1

NCI-H1792 = test system: NCI-H1792
Outline: as §1

NCI-H1915 = test system: NCI-H1915
Outline: as §1

NCI-H2023 = test system: NCI-H2023
Outline: as §1

NCI-H2087 = test system: NCI-H2087
Outline: as §1

NCI-H441 = test system: NCI-H441
Outline: as §1

NCI-H460 = test system: NCI-H460
Outline: as §1

NCI-H520 = test system: NCI-H520
Outline: as §1

NCI-H596 = test system: NCI-H596
Outline: as §1

NCI-H650 = test system: NCI-H650
Outline: as §1

NCI-H661 = test system: NCI-H661
Outline: as §1

NCI-H727 = test system: NCI-H727
Outline: as §1

PC-3 [JPC-3] = test system: PC-3 [JPC-3]
Outline: as §1

SMILES: Oc1nc(-c2ccc(C(F)(F)F)cc2)nc2c1CSCC2 [XAV939] + CC(C)C[C@H](NC(=O)[C@H](Cc1ccccc1)NC(=O)c1cnccn1)B(O)O [Bortezomib] (partner 0.002 µM)
- relative viability (201T; first compound 0.08 µM): 1.12
- relative viability (201T; first compound 0.253 µM): 0.981
- relative viability (201T; first compound 0.8 µM): 1.08
- relative viability (201T; first compound 2.53 µM): 0.979
- relative viability (A-427; first compound 0.08 µM): 1.06
- relative viability (A-427; first compound 0.253 µM): 0.977
- relative viability (A-427; first compound 0.8 µM): 0.883
- relative viability (A-427; first compound 2.53 µM): 0.769
- relative viability (ABC-1; first compound 0.08 µM): 0.315
- relative viability (ABC-1; first compound 0.253 µM): 0.307
- relative viability (ABC-1; first compound 0.8 µM): 0.254
- relative viability (ABC-1; first compound 2.53 µM): 0.252
- relative viability (BEN; first compound 0.08 µM): 0.709
- relative viability (BEN; first compound 0.253 µM): 0.733
- relative viability (BEN; first compound 0.8 µM): 0.559
- relative viability (CAL-12T; first compound 0.08 µM): 0.981
- relative viability (CAL-12T; first compound 0.253 µM): 0.856
- relative viability (CAL-12T; first compound 0.8 µM): 0.89
- relative viability (CAL-12T; first compound 2.53 µM): 0.977
- relative viability (H3255; first compound 0.08 µM): 1.05
- relative viability (H3255; first compound 0.253 µM): 0.716
- relative viability (H3255; first compound 0.8 µM): 0.62
- relative viability (H3255; first compound 2.53 µM): 0.853
- relative viability (LC-2-ad; first compound 0.08 µM): 1.01
- relative viability (LC-2-ad; first compound 0.253 µM): 0.919
- relative viability (LC-2-ad; first compound 0.8 µM): 0.984
- relative viability (LC-2-ad; first compound 2.53 µM): 0.887
- relative viability (LCLC-97TM1; first compound 0.08 µM): 0.589
- relative viability (LCLC-97TM1; first compound 0.253 µM): 0.517
- relative viability (LCLC-97TM1; first compound 0.8 µM): 0.472
- relative viability (LCLC-97TM1; first compound 2.53 µM): 0.505
- relative viability (NCI-H1650; first compound 0.08 µM): 0.178
- relative viability (NCI-H1650; first compound 0.253 µM): 0.211
- relative viability (NCI-H1650; first compound 0.8 µM): 0.222
- relative viability (NCI-H1650; first compound 2.53 µM): 0.215
- relative viability (NCI-H1651; first compound 0.08 µM): 0.906
- relative viability (NCI-H1651; first compound 0.253 µM): 0.905
- relative viability (NCI-H1651; first compound 0.8 µM): 0.942
- relative viability (NCI-H1651; first compound 2.53 µM): 0.925
- relative viability (NCI-H1792; first compound 0.08 µM): 0.945
- relative viability (NCI-H1792; first compound 0.253 µM): 0.943
- relative viability (NCI-H1792; first compound 0.8 µM): 0.973
- relative viability (NCI-H1792; first compound 2.53 µM): 0.869
- relative viability (NCI-H1915; first compound 0.08 µM): 1.06
- relative viability (NCI-H1915; first compound 0.253 µM): 0.974
- relative viability (NCI-H1915; first compound 0.8 µM): 0.983
- relative viability (NCI-H1915; first compound 2.53 µM): 1.14
- relative viability (NCI-H2023; first compound 0.08 µM): 1.11
- relative viability (NCI-H2023; first compound 0.253 µM): 0.785
- relative viability (NCI-H2023; first compound 0.8 µM): 0.833
- relative viability (NCI-H2023; first compound 2.53 µM): 0.792
- relative viability (NCI-H2087; first compound 0.08 µM): 0.864
- relative viability (NCI-H2087; first compound 0.253 µM): 0.595
- relative viability (NCI-H2087; first compound 0.8 µM): 0.938
- relative viability (NCI-H2087; first compound 2.53 µM): 0.763
- relative viability (NCI-H441; first compound 0.08 µM): 0.45
- relative viability (NCI-H441; first compound 0.253 µM): 0.401
- relative viability (NCI-H441; first compound 0.8 µM): 0.572
- relative viability (NCI-H441; first compound 2.53 µM): 0.681
- relative viability (NCI-H460; first compound 0.08 µM): 1.45
- relative viability (NCI-H460; first compound 0.253 µM): 1.07
- relative viability (NCI-H460; first compound 0.8 µM): 1.05
- relative viability (NCI-H460; first compound 2.53 µM): 1.08
- relative viability (NCI-H520; first compound 0.08 µM): 0.612
- relative viability (NCI-H520; first compound 0.253 µM): 0.317
- relative viability (NCI-H520; first compound 0.8 µM): 0.659
- relative viability (NCI-H520; first compound 2.53 µM): 0.368
- relative viability (NCI-H596; first compound 0.08 µM): 1.11
- relative viability (NCI-H596; first compound 0.253 µM): 1.1
- relative viability (NCI-H596; first compound 0.8 µM): 1.09
- relative viability (NCI-H596; first compound 2.53 µM): 1.3
- relative viability (NCI-H650; first compound 0.08 µM): 0.838
- relative viability (NCI-H650; first compound 0.253 µM): 0.882
- relative viability (NCI-H650; first compound 0.8 µM): 0.854
- relative viability (NCI-H650; first compound 2.53 µM): 0.703
- relative viability (NCI-H661; first compound 0.08 µM): 0.866
- relative viability (NCI-H661; first compound 0.253 µM): 0.707
- relative viability (NCI-H661; first compound 0.8 µM): 0.95
- relative viability (NCI-H661; first compound 2.53 µM): 0.495
- relative viability (NCI-H727; first compound 0.08 µM): 1.05
- relative viability (NCI-H727; first compound 0.253 µM): 0.589
- relative viability (NCI-H727; first compound 0.8 µM): 0.803
- relative viability (NCI-H727; first compound 2.53 µM): 0.957
- relative viability (PC-3 [JPC-3]; first compound 0.08 µM): 0.839
- relative viability (PC-3 [JPC-3]; first compound 0.253 µM): 0.722
- relative viability (PC-3 [JPC-3]; first compound 0.8 µM): 0.831
- relative viability (PC-3 [JPC-3]; first compound 2.53 µM): 0.755
